Experimental findings from patent publication US20110280939A1 (EVEREST PHARM. INDUSTRIAL CO., LTD., priority 2007, published 2011) are described below.

This data set in a line: average excretion half time in human body.

Structures are written as SMILES. Where a name gives a salt, the structure may show the parent alone.

Consider `CN[C@@H](C)[C@@H](O)c1ccccc1` [pseudoephedrine hydrochloride], for which the “average excretion half time” value stood at 4.76 ± 0.44 h.
